From PubChem BioAssay AID330 (DTP/NCI, 2004)
“And” between values parts separate entries of the source, which are not always exact repeats. Equal values may be shown once. Inconclusive results and toxic doses are left out. The calls were made as follows: active = survival T/C of 150% or more; inactive = T/C below 125% in these data.

Tested on: P388 leukemia ip, CD2F1 mice, survival T/C
Assay: NCI In Vivo Anticancer Drug Screen. Data for tumor model P388 Leukemia (intraperitoneal) in CD2F1 (CDF1) mice
Conditions: endpoint: median survival time, higher = longer survival
In short: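 Mice carrying the transplanted tumor received test compound or vehicle. Survival was recorded in each group, and the value is the treated-group measurement divided by that of the vehicle-treated control group.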

[1] = dose: 25.0 mg/kg/injection, schedule: Q01DX009 (ip), vehicle: other
[2] = dose: 50.0 mg/kg/injection, schedule: Q01DX009 (ip), vehicle: other
[3] = dose: 100.0 mg/kg/injection, schedule: Q01DX009 (ip), vehicle: other
[4] = dose: 200.0 mg/kg/injection, schedule: Q01DX009 (ip), vehicle: other

Measured: T/C

O=C(N/C(=C\c1nc2ccccc2s1)c1ccccc1O)c1ccccc1
inactive: dose: 100.0 mg/kg/injection, schedule: Q04DX002 (ip), vehicle: saline with Tween-80 104 % of control | dose: 200.0 mg/kg/injection, schedule: Q04DX002 (ip), vehicle: saline with Tween-80 99 % of control | dose: 400.0 mg/kg/injection, schedule: Q04DX002 (ip), vehicle: saline with Tween-80 103 % of control

N#Cc1ccc[n+](Cc2ccccc2)c1
inactive: dose: 50.0 mg/kg/injection, schedule: Q01DX005 (ip), vehicle: saline with Tween-80 100 % of control | dose: 100.0 mg/kg/injection, schedule: Q01DX005 (ip), vehicle: saline with Tween-80 103 % of control | dose: 200.0 mg/kg/injection, schedule: Q01DX005 (ip), vehicle: saline with Tween-80 100 % of control

O=C(O)c1cc2c3ccccc3ncc2c2ccccc12
inactive: dose: 100.0 mg/kg/injection, schedule: Q01DX001 (ip), vehicle: saline with Tween-80 113 % of control | dose: 200.0 mg/kg/injection, schedule: Q01DX001 (ip), vehicle: saline with Tween-80 100 % of control | dose: 400.0 mg/kg/injection, schedule: Q01DX001 (ip), vehicle: saline with Tween-80 100 % of control

CN1CCN(C)B1N=S(C)(C)=O
inactive: dose: 50.0 mg/kg/injection, schedule: Q01DX005 (ip), vehicle: olive oil, sesame oil, peanut oil 111 % of control | dose: 100.0 mg/kg/injection, schedule: Q01DX005 (ip), vehicle: olive oil, sesame oil, peanut oil 114 % of control

COc1cc2c(cc1OC)/C(=N/N=C1\CCCc3cc(OC)c(OC)cc31)CCC2
inactive: dose: 6.25 mg/kg/injection, schedule: Q01DX009 (ip), vehicle: other 93 % of control | dose: 6.25 mg/kg/injection, schedule: Q01DX009 (ip), vehicle: water 98 % of control | dose: 12.5 mg/kg/injection, schedule: Q01DX009 (ip), vehicle: other 92 % of control | dose: 12.5 mg/kg/injection, schedule: Q01DX009 (ip), vehicle: water 86 % of control | [1] 92 % of control | dose: 25.0 mg/kg/injection, schedule: Q01DX009 (ip), vehicle: water 86 % of control | [2] 90 % of control | [3] 88 % of control | dose: 100.0 mg/kg/injection, schedule: Q01DX009 (ip), vehicle: water 91 % of control

COc1cccc2c1C(=O)c1c(O)c3c(c(O)c1C2=O)C[C@@](O)(C(=O)CO)C[C@@H]3OC1CC(NC(C)=O)C(O)C(C)O1 (some centres not stated)
active: [1] 156 % of control | [2] 195 % of control | dose: 50.0 mg/kg/injection, schedule: Q01DX009 (ip), vehicle: water 172 % of control | [3] 201 % of control | [4] 192 % of control
inactive: dose: 0.2 mg/kg/injection, schedule: Q01DX009 (ip), vehicle: water 96 % of control | dose: 0.39 mg/kg/injection, schedule: Q01DX009 (ip), vehicle: water 107 % of control | dose: 0.78 mg/kg/injection, schedule: Q01DX009 (ip), vehicle: water 116 % of control | dose: 1.56 mg/kg/injection, schedule: Q01DX009 (ip), vehicle: water 122 % of control | dose: 3.13 mg/kg/injection, schedule: Q01DX009 (ip), vehicle: water 120 % of control

CC=C=CCN(C)Cc1ccccc1
inactive: dose: 6.25 mg/kg/injection, schedule: Q01DX009 (ip), vehicle: saline 107 % of control | dose: 12.5 mg/kg/injection, schedule: Q01DX009 (ip), vehicle: saline 94 % of control | dose: 25.0 mg/kg/injection, schedule: Q01DX009 (ip), vehicle: saline 109 % of control | dose: 50.0 mg/kg/injection, schedule: Q04DX003 (ip), vehicle: Klucel (hydroxypropylcellulose) (HPC) 108 % of control | dose: 100.0 mg/kg/injection, schedule: Q04DX003 (ip), vehicle: Klucel (hydroxypropylcellulose) (HPC) 88 % of control

OCCNCCN1CCN(CCCN2c3ccccc3Sc3ccc(C(F)(F)F)cc32)CC1
inactive: dose: 3.12 mg/kg/injection, schedule: Q04DX003 (ip), vehicle: saline 99 % of control | dose: 6.25 mg/kg/injection, schedule: Q04DX003 (ip), vehicle: saline 99 % of control and 101 % of control and 88 % of control | dose: 12.5 mg/kg/injection, schedule: Q04DX003 (ip), vehicle: saline 101 % of control and 102 % of control and 90 % of control | dose: 25.0 mg/kg/injection, schedule: Q04DX003 (ip), vehicle: saline 104 % of control and 106 % of control and 93 % of control

CCOC(=O)CCC1CCCC(CCC(=O)OCC)C1=O (configuration not stated)
inactive: [2] 105 % of control | [3] 101 % of control | [4] 106 % of control
